The values that follow come from patent publication US20020026659A1, “Developed seed and methods for making the same” (priority 1999, published 2002).

What all share (type): in vivo
The subject of assay [1] is Pepper Holiday Flame seeds. The assay is described as follows: Root elongation in germinating seeds with calcium effectors. To be noted: 5 days; for Root length: 6 mM EGTA or 5 mM manganese chloride, 25° C., water 6.5; for Root elongation, in words: 6 mM EGTA, 5 mM manganese chloride. As to the method: (§1) To investigate other mechanisms that might disrupt calcium utilization by germinating seeds leading to adverse effects on root formation and elongation, a number of known calcium effectors were analyzed. EGTA is a well-known calcium-chelating compound which binds free calcium ions. The element, manganese, has been characterized to act as a calcium channel blocker in the cellular environment of the plasma membrane, thereby inhibiting uptake and utilization of calcium by the cell. Finally, auxins, like IBA, can disrupt calcium signaling pathways in the cell, thereby disrupting cellular developmental processes like rooting. For these experiments, seeds were germinated in the presence of these compounds, and the lengths of the roots (in mm) from 20 randomly-selected seeds (per treatment) were measured. These values were then compared to the lengths of the roots from 20 randomly-selected seeds germinated in water during the same time period and under the same environmental conditions.
Approximately 100 seeds of pepper (variety Holiday Flame commercially available from Ball Horticultural Company, 622 Town Road, West Chicago, Ill. 60185) were germinated in 125 mL Erlenmeyer flasks containing either 40 mL water, 6 mM EGTA or 5 mM manganese chloride at 25° C. in a lighted growth room on an orbital shaker. After 5 days, root lengths were measured and recorded (see Table 1 below).

Assay [2] deals with Pansy Baby Bingo Sky Blue primed seeds. The description is as above. To be noted: 5 days; for Inhibition of root length versus water-treated seeds: 6 mM EGTA, 5 mM manganese chloride; for Root length: primed, 6 mM EGTA or 5 mM manganese chloride, 25° C., water 10.3. As to the method: as §1
Approximately 100 primed seeds of pansy (variety Baby Bingo Sky Blue commercially available from Ball Horticultural Company, 622 Town Road, West Chicago, Ill. 60185) were germinated in 125 mL Erlenmeyer flasks containing either 40 mL water, 6 mM EGTA or 5 mM manganese chloride at 25° C. in a lighted growth room on an orbital shaker. After 5 days, root lengths were measured and recorded (see Table 1 below).

The next assay has as its system Tomato Tumbler seeds. Described as above. To be noted: 5 days; for Root length: 6 mM EGTA or 5 mM manganese chloride, 25° C., water 6.5; for Root elongation, in words: 6 mM EGTA, 5 mM manganese chloride. As to the method:
as §1
Approximately 100 seeds of tomato (variety Tumbler commercially available from Ball Horticultural Company, 622 Town Road, West Chicago, Ill. 60185) were germinated in 125 mL Erlenmeyer flasks containing either 40 mL water, 6 mM EGTA or 5 mM manganese chloride at 25° C. in a lighted growth room on an orbital shaker. After 5 days, root lengths were measured and recorded (see Table 1 below).

The next assay has as its system Rice Cypress seeds. The assay is described as above. The note with it: 5 days; for Root length: 6 mM EGTA or 5 mM manganese chloride, 25° C., water 15.6. The protocol:
as §1
Approximately 100 seeds of rice (variety Cypress obtained from LSU Rice Research Station) were germinated in 125 mL Erlenmeyer flasks containing either 40 mL water, 6 mM EGTA or 5 mM manganese chloride at 25° C. in a lighted growth room on an orbital shaker. After 5 days, root lengths were measured and recorded (see Table 1 below).

For assay [3], the system named is Impatiens Dazzler ® Pink seeds. Described as above. The note with it: 6 mM EGTA, 5 days; for Root length: 5 mM manganese chloride or 8 ppm IBA, 25° C., 20 seeds, water 6.9; for Root growth, in words: 5 mM manganese chloride, 8 ppm IBA. As to the method: as §1
Approximately 100 seeds of impatiens (variety Dazzler® Pink commercially available from Ball Horticultural Company, 622 Town Road, West Chicago, Ill. 60185) were germinated in 125 mL Erlenmeyer flasks containing either 40 mL water, 6 mM EGTA, 5 mM manganese chloride or 8 ppm IBA at 25° C. in a lighted growth room on an orbital shaker. After 5 days, root lengths were measured and recorded (see Table 1 below).

In another assay the test system is Arabidopsis seeds. The assay is described as follows: Root development of germinating seeds with sucrose in nutrient medium. To be noted: 1% (w/v) added to the nutrient medium. The source says:
(§2) Also different, Arabidopsis, but not impatiens, root development was sensitive to an ammonium/potassium ionic imbalance in the nutrient medium.

The test system of assay [4] is germinating impatiens seeds. The description is as above. The note with it: 1% (w/v) in the nutrient medium, liquid or solid environment.
Source text: as §2

Assay [5] has as its system Vinca Coconut Cooler seeds. Briefly: Root elongation in germinating seeds with calcium effectors. To be noted: 6 mM EGTA or 5 mM manganese chloride, 5 days, 25° C. As to the method: as §1
After 5 days, root lengths were measured and recorded (see Table 1 below).

For the molecule `O=C(O)CN(CCOCCOCCN(CC(=O)O)CC(=O)O)CC(=O)O` [EGTA, ethylene glycol-bis (β-aminoethyl ether)-N,N,N′,N′-tetraacetic acid], the Root length in assay [1] was 1.8 mm; in assay [2] it was 0.4 mm; in the assay with Tomato Tumbler seeds, 1.8 mm; with Rice Cypress seeds, 3.2 mm; in assay [3], 0.0 mm. Moreover, the “Root elongation, in words” value in assay [1] is “inhibited root elongation”; with Tomato Tumbler seeds it was “significantly inhibited”. Besides, in assay [2], the “Inhibition of root length versus water-treated seeds” value is “an even greater extent”. In the assay on Rice Cypress seeds (6 mM EGTA), the “Inhibition of root elongation” value was ~80%. Moreover, the “Root growth, in words” value in assay [3] is “totally inhibited”.

`O=C(O)CCCc1c[nH]c2ccccc12` [IBA, indole-3-butyric acid]: in assay [3], the Root length is reported as 0.0 mm and the “Root growth, in words” value is on record as “totally inhibited”.

As to `OC[C@H]1O[C@@](CO)(O[C@H]2O[C@H](CO)[C@@H](O)[C@H](O)[C@H]2O)[C@@H](O)[C@@H]1O` [sucrose], the figures for the “root development, in words” value (in the assay on Arabidopsis seeds; in assay [4]) were “stimulate root development” and “severely inhibited”, respectively.

As to manganese chloride, the Root length in assay [5] (water 12.3) was found to be 3.0 mm; in assay [5] (water 12.3, listed as manganese), 3 mm; in assay [1] it was 4.2 mm; in assay [2], 1.9 mm; in the assay on Tomato Tumbler seeds, 4.4 mm; in the assay with Rice Cypress seeds, 15.6 mm. In addition, in assay [3], the Root length turned out to be 0.2 mm. Besides, the “Root elongation, in words” value was “inhibited root elongation” in assay [1], “Modest inhibition” in the assay with Tomato Tumbler seeds and “no effect” in the assay on Rice Cypress seeds (5 mM manganese chloride). Moreover, the “Inhibition of root length versus water-treated seeds” value in assay [2] was 70-90%. For the same molecule, the “Root growth, in words” value in assay [3] is “Some minor root growth”.
